Source: patent publication US20080113969A1, “COMBINATION THERAPY FOR THE TREATMENT OF PAIN” (priority 2006, published 2008)
Entries after “also recorded” stand apart in the source; their conditions may differ.

Experiments:
[1] = system: neuropathic pain model in male Sprague-Dawley rats; assay: Neuropathic pain model (Chung model, spinal nerve ligation, von Frey withdrawal threshold); assay type: in vivo, rat; conditions: Chung model of chronic neuropathic pain, FIG. 8
Excerpt: Spinal Nerve Ligation: After Animal Care and Use Committee approval, male Sprague-Dawley rats (Harlan, Indianapolis, Ind., USA) weighing 180-200 g undergo anesthesia as previously described by Kim and Chung (Pain 1992, 50, 355-363). Briefly, under general anesthesia with inhalational halothane, the left L5 and L6 spinal nerves are identified through a small laminotomy and tightly ligated. Approximately one week later, an intrathecal catheter is placed under general anesthesia by insertion under direct vision of a polyethylene catheter through a small slit in the dura at the cisterna magnum, and advanced 8.5 cm such that the catheter tip resides in the lower lumbar intrathecal space. Animals are studied approximately one week later. Ligation of the lumbar spinal nerves results in a primarily unilateral increase in the sensitivity to light touch on the operated side. Sensitivity is assessed via application of calibrated von Frey filaments. The withdrawal threshold is determined using an up down method as previously described by Chaplan et al. (J. Neurosci. Methods 1994, 53, 55-63).
Experimental Design: Animals receive, at least 4 weeks after spinal nerve ligation surgery, and at least 1 week after intrathecal catheter insertion, single injections of vehicle (β-cyclodextrin) or the drug substance, using a randomized and blinded protocol. Withdrawal thresholds are determined at intervals for up to 20 hr after injection.

[2] = system: postoperative pain model in adult male rats; assay: Postincisional hypersensitivity model (paw incision, withdrawal threshold to von Frey filaments); assay type: in vivo, rat; conditions: intrathecal (i.t.), 24 h after paw incision
Experimental: Animal preparation: Following Animal Care and Use Committee approval, an intrathecal (i.t.) catheter with tip in the lumbar space is inserted as previously described in adult male rats weighing 250 g (Yaksh and Rudy, Physiol Behav. 1976, 7, 1032-1036). One week following the insertion of the i.t. catheter, paw incision surgery is performed as previously described (Brennan et al., Pain 1996, 64, 493-501). Briefly, animals are anesthetized with halothane, and a 1-cm long incision is made in the plantar aspect of the left hind paw starting 0.5 cm from the edge of the heel toward the toe after sterile preparation with 70% ethanol. The plantaris muscle is elevated and incised longitudinally. The wound is closed with 2 mattress sutures of 5.0 silk. Subsequently, withdrawal threshold to von Frey filaments is determined one day after surgery (Chaplan et al., J. Neurosci. Methods, 1994, 53, 55-63). For all testing but pilot dose ranging studies, investigators are blinded to study drug administration. A cut off value of 22 g is used. […]
Single drug injection: For single drug administration, a volume containing 5 μL drug is used, followed by 10 μL of saline. […] Dose response curves are first constructed, and ED40 values for single drugs are then determined at the time of peak effect.
Drug interaction: For the combination of T-62 with morphine and NBQX, two injections are performed since the time of peak effect for morphine and NBQX is 30 min earlier than that of T-62 (T-62 is injected 30 min before drug injections). Paw withdrawal thresholds are determined before surgery, before drug injection, and 30, 60, 90, 120, 150, 180, and 210 min after the second drug injection. […] The dose response curves are then constructed for the combined drugs, and the ED40 values of the combined drugs are calculated at the time point of peak effect. […]
Data analysis: Data are presented as mean ±S.E. Withdrawal threshold data are analyzed by two-way analysis of variance followed by Fisher's LSD test. […] Isobolograms are statistically analyzed by student T test.

[3] = system: inflammatory and neuropathic pain; conditions: previously demonstrated (Li et al. 2003, Li et al. 2002, Pan et al. 2001); cited from earlier work

SMILES	anti-allodynic effect [1]	relative potency among the three enhancers [1]	anti-hypersensitivity effect (mechanical hypersensitivity) [2]	effect on inflammatory and neuropathic pain [3]
Nc1sc2c(c1C(=O)c1cccc3ccccc13)CCC2 [formula (Ic)]	dose-dependent anti-allodynic effects	most potent enhancer of the three agents	–	–
Nc1sc2c(c1C(=O)c1ccc(Cl)cc1)CCCC2 [T-62, (2-amino-4,5,6,7-tetrahydrobenzo[b]thiophen-3-yl)(4-chlorophenyl)methanone]	dose-dependent anti-allodynic effects	–	reduced mechanical hypersensitivity in a time dependent manner; also recorded: modest effect	reduce inflammatory and neuropathic pain
CN1CC[C@]23c4c5ccc(O)c4O[C@H]2[C@@H](O)C=C[C@H]3[C@H]1C5 [Morphine, morphine, reference compound]	–	–	reduces mechanical hypersensitivity in a time and dose dependent manner	–
NS(=O)(=O)c1cccc2c1c([N+](=O)[O-])cc1nc(O)c(O)nc12 [NBQX, 2,3-dihydroxy-6-nitro-7-sulfamoylbenzo(f)quinoxaline, reference compound]	–	–	reduces the mechanical hypersensitivity in a time and dose dependent manner	–
Nc1sc2c(c1C(=O)c1ccccc1)CCS2 [formula (Ib)]	dose-dependent anti-allodynic effects	–	–	–
